Measured values reported in ChEMBL document CHEMBL1141434, “Chlorocyclinones A-D, chlorinated angucyclinones from Streptomyces sp. strongly antagonizing rosiglitazone-induced PPAR-gamma activation” (J Nat Prod, 2007).

Columns and labels:
[1] = target: T1, Peroxisome proliferator-activated receptor gamma (Homo sapiens, UniProt P37231); test: Antagonist activity at human PPARgamma receptor in CHO-K1 cells assessed as rosiglitazone-induced receptor activation by cell based reporter assay; assay type: functional
T1 sequence (P37231 whole entry): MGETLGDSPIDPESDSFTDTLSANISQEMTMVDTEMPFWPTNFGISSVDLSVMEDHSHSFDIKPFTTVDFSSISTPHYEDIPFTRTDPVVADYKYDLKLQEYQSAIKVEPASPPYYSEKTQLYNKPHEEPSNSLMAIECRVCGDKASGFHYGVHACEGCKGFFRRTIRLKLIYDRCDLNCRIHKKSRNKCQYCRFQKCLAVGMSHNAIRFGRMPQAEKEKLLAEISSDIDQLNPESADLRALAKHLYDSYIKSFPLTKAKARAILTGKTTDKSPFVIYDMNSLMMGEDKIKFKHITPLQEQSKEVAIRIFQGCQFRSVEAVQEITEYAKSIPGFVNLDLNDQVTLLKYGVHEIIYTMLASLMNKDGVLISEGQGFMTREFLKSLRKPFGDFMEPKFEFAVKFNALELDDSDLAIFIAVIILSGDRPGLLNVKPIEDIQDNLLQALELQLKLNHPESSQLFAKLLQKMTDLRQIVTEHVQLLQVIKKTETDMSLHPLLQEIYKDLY

[2] = target: T1, Peroxisome proliferator-activated receptor gamma; test: Displacement of [3H]rosiglitazone from human PPARgamma receptor by scintillation proximity assay
[3] = target: T1, Peroxisome proliferator-activated receptor gamma; test: Antagonist activity at human PPARgamma receptor assessed as rosiglitazone-induced receptor activation by alphascreen assay; assay type: functional

CCc1c(C(=O)OC)cc2c(c1O)C(=O)c1c(O)cc3cc(C)c(Cl)c(OC)c3c1C2=O [CHLOROCYCLINONE A]
IC50 [1]: 7000 nM
EC50 [2]: 180 nM
IC50 [3]: 160 nM

COC(=O)c1cc2c(c(O)c1C(C)OC(C)=O)C(=O)c1c(O)cc3cc(C)c(Cl)c(OC)c3c1C2=O (configuration not stated) [CHLOROCYCLINONE B]
IC50 [1]: 1400 nM
EC50 [2]: 160 nM
IC50 [3]: 100 nM

COC(=O)c1cc2c(c(O)c1C(C)OC(=O)CO)C(=O)c1c(O)cc3cc(C)c(Cl)c(OC)c3c1C2=O (configuration not stated) [CHLOROCYCLINONE C]
IC50 [1]: 600 nM
EC50 [2]: 130 nM
IC50 [3]: 90 nM

COc1c(Cl)c(C)cc2cc(O)c3c(c12)C(=O)c1cc2c(c(O)c1C3=O)C(C)OC2=O (configuration not stated) [CHLOROCYCLINONE D]
IC50 [1]: 4400 nM
EC50 [2]: 260 nM
IC50 [3]: 320 nM
